Tests used:
MRSA COL (MB5393) = experiment: TarO Inhibitor/β-Lactam Synergy Assay; type: cell-based, Staphylococcus aureus; conditions: 20 hours; for IC95: Staphylococcus aureus, TarO inhibitor alone, OD600, 95% growth inhibition, read-out: MITC95 TarO inhibitor alone, Bacteria: SA_MB5393; for MITC95 TarO inhibitor + 4 μg/mL IPM; Bacteria: SA_MB5393: in combination with 4 μg/mL imipenem; for MITC95 TarO inhibitor + 4 μg/mL IPM; Bacteria: SA_MB5393 / MITC95 TarO inhibitor + 8 μg/mL DCX; Bacteria: SA_MB5393: OD600; for MITC95 TarO inhibitor + 8 μg/mL DCX; Bacteria: SA_MB5393: in combination with 8 μg/mL dicloxacillin
Experimental: The TarO inhibitor/β-lactam synergy assay was performed to measure the re-sensitization of methicillin-resistant Staphylococci bacteria (MB5393: MRSA COL) to β-lactam antibiotics by TarO inhibitors. MRSA COL is a hospital-acquired penicillinase-negative clinically isolated strain commonly used in Staphylococcus aureus studies and is fully resistant to the antimicrobial bioactivity of β-lactam antibiotics, including but not limited to imipenem and dicloxacillin. […] MRSA COL is fully refractory to β-lactam antibiotic effect at the current clinical breakpoint concentrations and as such MRSA COL is fully viable at these concentrations.
The β-lactam antibiotic concentration was fixed at the clinical breakpoint (imipenem 4 μg/ml or dicloxacillin 8 μg/ml) and the TarO inhibitors were titrated by 2 fold starting from the highest concentration of 200 μM with final DMSO concentration of 2% in the assay. 5×10^5 colony forming unit of MRSA COL in cation-adjusted Mueller Hinton broth (CAMHB) was then mixed and the assay plate was incubated for 20 hours at 37° C. without shaking. After 20 hours, the optical density at 600 nm (OD600) was read for all wells to determine relative growth of MRSA COL.

MRSA COL (MB 5393) = experiment: In Vivo Murine Systemic Infection Model; design: species or system Staphylococcus aureus
Experimental: The murine systemic infection model determines the therapeutic efficacy of TarO inhibitor/β-lactam combinations in vivo. Staphylococci bacteria can cause a systemic infection and establish a robust growth in the kidneys of the infected animal. MRSA COL can establish an infection even in the presence of β-lactam antibiotic due MRSA COL resistance to β-lactam antibiotics.
Female Balb/C mice were rendered neutropenic (immune suppressed) with a single 250 mg/kg intraperitoneal (ip) dose of cyclophosphamide on […]. MRSA COL (MB 5393) was grown for 16 hours in trypticase soy broth (TSB) at 37° C. and 0.5 mL of diluted culture (˜1×10^4 cfu) was administered intraperitoneal (IP). The TarO inhibitor and β-lactam antibiotic were administered alone or in combination by subcutaneous route at 2, 5 and 8 hr. post challenge (sc, tid). Twenty four hours post challenge mice were euthanized and the kidneys harvested, weighed, homogenized and plated to measure the total number of bacteria recovered as colony forming unit (CFU) remaining in compound treated groups as compared to vehicle (saline) or β-lactam antibiotic alone groups (statistical analyses was determined by one way ANOVA).

| SMILES | IC95 (MRSA COL (MB5393)) | MITC95 TarO inhibitor + 4 μg/mL IPM; Bacteria: SA_MB5393 (MRSA COL (MB5393)) | MITC95 TarO inhibitor + 8 μg/mL DCX; Bacteria: SA_MB5393 (MRSA COL (MB5393)) | Bacteria recovered (MRSA COL (MB 5393); Imipenem alone (5 mg/kg) sc, tid, neutropenic Balb/C mice, 24 h post challenge) | Fold reduction vs. vehicle alone (MRSA COL (MB 5393); Imipenem alone (5 mg/kg), kidney cfu) |
| --- | --- | --- | --- | --- | --- |
| CCN(C(=O)CCn1c(C2CCC(C)N(c3cccc(OC)n3)C2)nc2ccccc21)C1CCCCC1 (stereo not drawn) [Example 44, N-cyclohexyl-N-ethyl-3-{2-[1-(6-methoxypyridin-2-yl)-6-methylpiperidin-3-yl]-1H-benzimidazol-1-yl}propanamide] | 100 µM | 0.10 µM | 0.20 µM | – | – |
| CCCCOC(=O)N1CCCC(c2nc3ccccc3n2CCC(=O)N(CC)C2CCCCC2)C1 (stereo not drawn) [Example 45, butyl 3-(1-{3-[cyclohexyl(ethyl)amino]-3-oxopropyl}-1H-benzimidazol-2-yl)piperidine-1-carboxylate] | 100 µM | 0.20 µM | 0.78 µM | – | – |
| CCc1nsc(N2CCCC(c3nc4ccccc4n3CCC(=O)N(CC)C3CCCCC3)C2)n1 (stereo not drawn) [Example 46, N-cyclohexyl-N-ethyl-3-{2-[1-(3-ethyl-1,2,4-thiadiazol-5-yl)piperidin-3-yl]-1H-benzimidazol-1-yl}propanamide] | 100 µM | 1.56 µM | 6.25 µM | – | – |
| CCN(C(=O)CCn1c(C2CCCN(c3cccc(OC)n3)C2)nc2ccccc21)C1CCCCC1 (stereo not drawn) [Example 47, N-cyclohexyl-N-ethyl-3-{2-[1-(6-methoxypyridin-2-yl)piperidin-3-yl]-1H-benzimidazol-1-yl}propanamide] | 100 µM | 0.10 µM | 0.20 µM | – | – |
| CCN(C(=O)CCn1c(C2CCCN(c3ccccn3)C2)nc2ccccc21)C1CCCCC1 (stereo not drawn) [Example 48, N-cyclohexyl-N-ethyl-3-[2-(1-pyridin-2-ylpiperidin-3-yl)-1H-benzimidazol-1-yl]propanamide] | > 200 µM | 1.56 µM | 50 µM | – | – |
| CCCOC(=O)N1CC(c2nc3ccccc3n2CCC(=O)N(CC)C2CCCCC2)CCC1C (stereo not drawn) [Example 49, propyl 5-(1-{3-[cyclohexyl(ethyl)amino]-3-oxopropyl}-1H-benzimidazol-2-yl)-2-methylpiperidine-1-carboxylate] | 100 µM | 0.78 µM | 6.25 µM | – | – |
| CCN(C(=O)CCn1c(C2CCC(C)N(c3nccc(OC)n3)C2)nc2ccccc21)C1CCCCC1 (stereo not drawn) [Example 50, N-cyclohexyl-N-ethyl-3-{2-[1-(4-methoxypyrimidin-2-yl)-6-methylpiperidin-3-yl]-1H-benzimidazol-1-yl}propanamide] | 100 µM | 0.20 µM | 1.56 µM | – | – |
| CCCOC(=O)N1CCCC(c2nc3ccccc3n2CCC(=O)N(CC)C2CCCCC2)C1 (stereo not drawn) [Example 51, Propyl 3-(1-{3-[cyclohexyl(ethyl)amino]-3-oxopropyl}-1H-benzimidazol-2-yl)piperidine-1-carboxylate] | 100 µM | 0.39 µM | 3.13 µM | – | – |
| CCN(C(=O)CCn1c(C2CCCN(c3nccc(C)n3)C2)nc2ccccc21)C1CCCCC1 (stereo not drawn) [Example 52, N-cyclohexyl-N-ethyl-3-{2-[1-(4-methylpyrimidin-2-yl)piperidin-3-yl]-1H-benzimidazol-1-yl}propanamide] | 100 µM | 1.56 µM | 6.25 µM | – | – |
| CCN(C(=O)CCn1c(C2CCCN(C(=O)OC(C)C)C2)nc2ccccc21)C1CCCCC1 (stereo not drawn) [Example 53, 1-methylethyl 3-(1-{3-[cyclohexyl(ethyl)amino]-3-oxopropyl}-1H-benzimidazol-2-yl)piperidine-1-carboxylate] | 100 µM | 1.56 µM | 6.25 µM | – | – |
| CCN(C(=O)CCn1c(N2CCC(F)(F)CC2)nc2ccccc21)C1CCCCC1 [Example 55, N-cyclohexyl-3-(2-(4,4-difluoropiperidin-1-yl)-1H-benzo[d]imidazol-1-yl)-N-ethylpropanamide] | > 200 µM | 1.37 µM | 7.81 µM | – | – |
| CCN(C(=O)CCn1c(N2CCC(C(F)F)CC2)nc2ccccc21)C1CCCCC1 [Example 56, N-cyclohexyl-3-{2-[4-(difluoromethyl)piperidin-1-yl]-1H-benzimidazol-1-yl}-N-ethylpropanamide] | > 200 µM | 1.17 µM | 4.69 µM | – | – |
| CCN(C(=O)CCn1c(N2CCC(C)CC2)nc2ccccc21)C1CCCCC1 [Example 57, N-cyclohexyl-N-ethyl-3-[2-(4-methylpiperidin-1-yl)-1H-benzimidazol-1-yl]propanamide] | > 200 µM | 1.30 µM | 26 µM | – | – |
| CCN(C(=O)CCn1c(N2CCC(C(C)(C)C)CC2)nc2ccccc21)C1CCCCC1 [Example 58, 3-[2-(4-tert-butylpiperidin-1-yl)-1H-benzimidazol-1-yl]-N-cyclohexyl-N-ethylpropanamide] | > 200 µM | 0.02 µM | 0.13 µM | – | – |
| CCN(C(=O)CCn1c(N2CCC[C@H](NC(=O)OC(C)(C)C)C2)nc2ccccc21)C1CCCCC1 [Example 59, tert-butyl [(3S)-1-(1-{3-[cyclohexyl(ethyl)amino]-3-oxopropyl}-1H-benzimidazol-2-yl)piperidin-3-yl]carbamate] | > 200 µM | 50 µM | 150 µM | – | – |
| CCN(C(=O)CCn1c(CN2CCC(C(C)(C)C)CC2)nc2ccccc21)C1CCCCC1 [Example 60, 3-{2-[(4-tert-butylpiperidin-1-yl)methyl]-1H-benzimidazol-1-yl}-N-cyclohexyl-N-ethylpropanamide] | > 200 µM | 0.78 µM | 6.25 µM | – | – |
| CCC1CCN(Cc2nc3cc(C)ccc3n2CCC(=O)N(CC)C2CCCCC2)CC1 [Example 61, N-cyclohexyl-N-ethyl-3-{2-[(4-ethylpiperidin-1-yl)methyl]-5-methyl-1H-benzimidazol-1-yl}propanamide] | 50 µM | 6.25 µM | 25 µM | – | – |
| CCC1CCN(Cc2nc3ccccc3n2CCC(=O)N(CC)C2CCCCC2)CC1 [Example 62, N-cyclohexyl-N-ethyl-3-{2-[(4-ethylpiperidin-1-yl)methyl]-1H-benzimidazol-1-yl}propanamide] | > 200 µM | 6.25 µM | 25 µM | – | – |
| CC1CCN(C(=O)CCn2c(C3CCCCC3)nc3ccccc32)CC1 [Example 63, 3-(2-cyclohexyl-1H-benzo[d]imidazol-1-yl)-1-(4-methylpiperidin-1-yl)propan-1-one] | > 200 µM | 18.75 µM | – | – | – |
| CCN(C(=O)CCn1c(C2CCCCC2)cc2ccccc21)C1CCCCC1 [Example 64, N-cyclohexyl-3-(2-cyclohexyl-1H-indol-1-yl)-N-ethylpropanamide] | > 200 µM | 6.20 µM | – | – | – |
| C[C@@H](O)[C@H]1C(=O)N2C(C(=O)O)=C(SCCN=CN)C[C@H]12 [imipenem, reference compound] | – | – | – | 1.0 × 10^6 cfu/g kidney | 19 |

From patent US11141403B2, “Benzimidazoles and indoles as taro inhibitors” (MERCK SHARP & DOHME CORP., priority 2015, dated 2021)
